From PubChem BioAssay (NCI)
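Protocol summary: plate cells (96-well), add compound at 5 concentrations, incubate 48 h, interpolate endpoints linearly. TGI denotes the concentration required for complete inhibition of growth.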

Assays:
Assay in all cases: growth of human tumour cells (NCI), 48 h
786-0 renal = tested on: 786-0 renal
A498 renal = tested on: A498 renal
A549 NSCLC = tested on: A549 NSCLC
ACHN renal = tested on: ACHN renal
CAKI-1 renal = tested on: CAKI-1 renal
CCRF-CEM leukemia = tested on: CCRF-CEM leukemia
COLO 205 colon = tested on: COLO 205 colon
DLD-1 colon = tested on: DLD-1 colon
DMS 114 small cell lung = tested on: DMS 114 small cell lung
DMS 273 small cell lung = tested on: DMS 273 small cell lung
HCC-2998 colon = tested on: HCC-2998 colon
HCT-116 colon = tested on: HCT-116 colon
HCT-15 colon = tested on: HCT-15 colon
HOP-18 NSCLC = tested on: HOP-18 NSCLC
HOP-62 NSCLC = tested on: HOP-62 NSCLC
HOP-92 NSCLC = tested on: HOP-92 NSCLC
HT29 colon = tested on: HT29 colon
IGROV1 ovarian = tested on: IGROV1 ovarian
K-562 leukemia = tested on: K-562 leukemia
KM12 colon = tested on: KM12 colon
KM20L2 colon = tested on: KM20L2 colon
LOX IMVI melanoma = tested on: LOX IMVI melanoma
LXFL 529 NSCLC = tested on: LXFL 529 NSCLC
M14 melanoma = tested on: M14 melanoma
M19-MEL melanoma = tested on: M19-MEL melanoma
MALME-3M melanoma = tested on: MALME-3M melanoma
MOLT-4 leukemia = tested on: MOLT-4 leukemia
NCI-H23 lung = tested on: NCI-H23 lung
NCI-H460 lung = tested on: NCI-H460 lung
NCI-H522 lung = tested on: NCI-H522 lung
OVCAR-3 ovarian = tested on: OVCAR-3 ovarian
OVCAR-4 ovarian = tested on: OVCAR-4 ovarian
OVCAR-5 ovarian = tested on: OVCAR-5 ovarian
OVCAR-8 ovarian = tested on: OVCAR-8 ovarian
RPMI-8226 leukemia = tested on: RPMI-8226 leukemia
RXF 393 renal = tested on: RXF 393 renal
SF-268 CNS = tested on: SF-268 CNS
SF-295 CNS = tested on: SF-295 CNS
SF-539 CNS = tested on: SF-539 CNS
SK-MEL-2 melanoma = tested on: SK-MEL-2 melanoma
SK-MEL-28 melanoma = tested on: SK-MEL-28 melanoma
SK-MEL-5 melanoma = tested on: SK-MEL-5 melanoma
SK-OV-3 ovarian = tested on: SK-OV-3 ovarian
SN12C renal = tested on: SN12C renal
SNB-19 CNS = tested on: SNB-19 CNS
SNB-75 CNS = tested on: SNB-75 CNS
SNB-78 CNS = tested on: SNB-78 CNS
SR leukemia = tested on: SR leukemia
SW-620 colon = tested on: SW-620 colon
TK-10 renal = tested on: TK-10 renal
U251 CNS = tested on: U251 CNS
UACC-257 melanoma = tested on: UACC-257 melanoma
UACC-62 melanoma = tested on: UACC-62 melanoma
UO-31 renal = tested on: UO-31 renal

`CCCCCCCC/C=C/CCCCCCCC(=O)N(O)C1CC(n2cc(C)c(=O)[nH]c2=O)OC1CO` (centres undefined) was tested. Which TGI (786-0 renal) did it give?
Its TGI is 16 µM.

What about the TGI (A498 renal) of the same compound?
Its TGI is 32.2 µM.

And the TGI (A549 NSCLC)?
The TGI was 33.9 µM.

And the TGI (ACHN renal)?
Its TGI is 18 µM.

What about the TGI (CAKI-1 renal) of the same compound?
Its TGI is 21.6 µM.

And the TGI (CCRF-CEM leukemia)?
Its TGI is 20.4 µM.

What about the TGI (COLO 205 colon) of the same compound?
The TGI was 16.7 µM.

What about the TGI (DLD-1 colon) of the same compound?
Its TGI is 18.4 µM.

And the TGI (DMS 114 small cell lung)?
Its TGI is 10.9 µM.

What about the TGI (DMS 273 small cell lung) of the same compound?
The TGI was 16.1 µM.

What about the TGI (HCC-2998 colon) of the same compound?
Its TGI is 22.4 µM.

What about the TGI (HCT-116 colon) of the same compound?
The TGI was 20.6 µM.

And the TGI (HCT-15 colon)?
Its TGI is 16.2 µM.

What about the TGI (HOP-18 NSCLC) of the same compound?
The TGI was 13.9 µM.

And the TGI (HOP-62 NSCLC)?
The TGI was 18.1 µM.

And the TGI (HOP-92 NSCLC)?
Its TGI is 28.7 µM.

What about the TGI (HT29 colon) of the same compound?
The TGI was 22.4 µM.

What about the TGI (IGROV1 ovarian) of the same compound?
Its TGI is 17.6 µM.

What about the TGI (K-562 leukemia) of the same compound?
Its TGI is 21 µM.

And the TGI (KM12 colon)?
Its TGI is 23.3 µM.

And the TGI (KM20L2 colon)?
Its TGI is 16.4 µM.

What about the TGI (LOX IMVI melanoma) of the same compound?
The TGI was 17.3 µM.

And the TGI (LXFL 529 NSCLC)?
Its TGI is 22.4 µM.

What about the TGI (M14 melanoma) of the same compound?
Its TGI is 10.1 µM.

What about the TGI (M19-MEL melanoma) of the same compound?
The TGI was 17.7 µM.

What about the TGI (MALME-3M melanoma) of the same compound?
Its TGI is 22 µM.

What about the TGI (MOLT-4 leukemia) of the same compound?
The TGI was 19.6 µM.

What about the TGI (NCI-H23 lung) of the same compound?
The TGI was 23.2 µM.

And the TGI (NCI-H460 lung)?
Its TGI is 13.6 µM.

And the TGI (NCI-H522 lung)?
The TGI was 20.2 µM.

And the TGI (OVCAR-3 ovarian)?
Its TGI is 20.1 µM.

What about the TGI (OVCAR-4 ovarian) of the same compound?
The TGI was 25 µM.

What about the TGI (OVCAR-5 ovarian) of the same compound?
The TGI was 22.3 µM.

What about the TGI (OVCAR-8 ovarian) of the same compound?
The TGI was 24.9 µM.

What about the TGI (RPMI-8226 leukemia) of the same compound?
The TGI was 50.1 µM.

What about the TGI (RXF 393 renal) of the same compound?
Its TGI is 16.2 µM.

What about the TGI (SF-268 CNS) of the same compound?
The TGI was 26.3 µM.

And the TGI (SF-295 CNS)?
Its TGI is 21.4 µM.

And the TGI (SF-539 CNS)?
Its TGI is 24.2 µM.

And the TGI (SK-MEL-2 melanoma)?
Its TGI is 26.9 µM.

And the TGI (SK-MEL-28 melanoma)?
Its TGI is 19.4 µM.

What about the TGI (SK-MEL-5 melanoma) of the same compound?
The TGI was 19.5 µM.

What about the TGI (SK-OV-3 ovarian) of the same compound?
Its TGI is 21.9 µM.

And the TGI (SN12C renal)?
Its TGI is 22.8 µM.

What about the TGI (SNB-19 CNS) of the same compound?
Its TGI is 25.5 µM.

And the TGI (SNB-75 CNS)?
Its TGI is 29.8 µM.

What about the TGI (SNB-78 CNS) of the same compound?
The TGI was 45.8 µM.

What about the TGI (SR leukemia) of the same compound?
The TGI was 20.5 µM.

What about the TGI (SW-620 colon) of the same compound?
The TGI was 23.8 µM.

And the TGI (TK-10 renal)?
Its TGI is 22.7 µM.

What about the TGI (U251 CNS) of the same compound?
Its TGI is 17 µM.

What about the TGI (UACC-257 melanoma) of the same compound?
The TGI was 26.7 µM.

What about the TGI (UACC-62 melanoma) of the same compound?
Its TGI is 11 µM.

What about the TGI (UO-31 renal) of the same compound?
Its TGI is 14.4 µM.
